pIC50, pKi: −log10 of the molar value.
How the values were obtained:
Kidney [1] = assay: Drug level in human LNCaP cells xenografted Balb/c mouse kidney at 10 MBq, iv measured after 45 to 130 mins by PET/CT scanning; format: ADME, organism-based; settings: in vivo
[2] = Drug level in human LNCaP cells xenografted Balb/c mouse tumor at 10 MBq, iv measured after 45 to 130 mins by PET/CT scanning in presence of unlabelled compound; format: ADME, organism-based, Neoplasm; settings: in vivo
[3] = Drug level in human LNCaP cells xenografted Balb/c mouse tumor at 10 MBq, iv measured after 45 to 130 mins by PET/CT scanning; format: ADME, organism-based, Neoplasm; settings: in vivo
Bone = assay: Drug level in human LNCaP cells xenografted Balb/c mouse bone at 10 MBq, iv measured after 45 to 130 mins by PET/CT scanning; format: ADME, organism-based, Bone element; settings: in vivo
[4] = Drug level in human LNCaP cells xenografted Balb/c mouse gut at 10 MBq, iv measured after 45 to 130 mins by PET/CT scanning; format: ADME, organism-based; settings: in vivo
Urinary bladder = assay: Drug level in human LNCaP cells xenografted Balb/c mouse bladder at 10 MBq, iv measured after 45 to 130 mins by PET/CT scanning; format: ADME, organism-based; settings: in vivo
Liver = assay: Drug level in human LNCaP cells xenografted Balb/c mouse liver at 10 MBq, iv measured after 45 to 130 mins by PET/CT scanning; format: ADME, organism-based; settings: in vivo
Kidney [5] = assay: Drug level in human LNCaP cells xenografted Balb/c mouse kidney at 10 MBq, iv measured after 45 to 130 mins by PET/CT scanning in presence of unlabelled compound; format: ADME, organism-based; settings: in vivo
[6] = target: T1, Glutamate carboxypeptidase 2 (Homo sapiens, UniProt Q04609); assay: biochemical
Description: Inhibition of NAALADase activity in human LNCaP cell membranes assessed as inhibition of [3H]NAG conversion to [3H]glutamate after 30 mins by liquid scintillation counting

[7] = target: T1, Glutamate carboxypeptidase 2; assay: Binding affinity to NAALADase

T1 sequence (Q04609 whole entry): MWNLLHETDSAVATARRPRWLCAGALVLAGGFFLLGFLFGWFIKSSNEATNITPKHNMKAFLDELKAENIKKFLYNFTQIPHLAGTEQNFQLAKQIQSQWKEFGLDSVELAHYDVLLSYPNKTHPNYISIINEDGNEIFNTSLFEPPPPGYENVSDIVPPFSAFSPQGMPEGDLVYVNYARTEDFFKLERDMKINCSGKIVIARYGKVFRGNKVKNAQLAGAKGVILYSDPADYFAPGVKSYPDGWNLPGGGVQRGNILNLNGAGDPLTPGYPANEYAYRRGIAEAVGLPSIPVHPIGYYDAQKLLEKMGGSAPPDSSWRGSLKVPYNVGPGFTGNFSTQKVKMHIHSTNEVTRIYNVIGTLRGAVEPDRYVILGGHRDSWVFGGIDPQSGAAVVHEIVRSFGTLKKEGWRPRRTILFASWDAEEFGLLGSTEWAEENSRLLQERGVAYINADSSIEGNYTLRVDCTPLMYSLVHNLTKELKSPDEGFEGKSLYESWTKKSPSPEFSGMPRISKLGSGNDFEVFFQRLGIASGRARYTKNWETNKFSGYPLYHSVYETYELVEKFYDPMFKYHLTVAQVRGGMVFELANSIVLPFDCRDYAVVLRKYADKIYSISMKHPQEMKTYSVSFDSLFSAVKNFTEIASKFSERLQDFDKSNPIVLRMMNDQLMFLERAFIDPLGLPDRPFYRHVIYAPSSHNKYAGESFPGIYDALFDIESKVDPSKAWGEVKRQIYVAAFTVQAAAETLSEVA

SMILES	pIC50 [6]	pKi [6]	pKi [7]	also measured
O=C(O)C([18F])CC(CP(=O)(O)O)C(=O)O (racemic)				Drug uptake (Kidney [1]): Active; Drug uptake [2]: Not Active; Drug uptake [3]: Active; Drug uptake (Bone): Active; Drug uptake [4]: Not Active; Drug uptake (Urinary bladder): Active; Drug uptake (Liver): Not Active; Drug uptake (Kidney [5]): Not Active
C[C@H](C[C@H](NC(=O)N[C@@H](C[C@@H](C)C(=O)O)C(=O)O)C(=O)O)C(=O)O			5.89	
C[C@@H](C[C@H](NC(=O)N[C@@H](C[C@H](C)C(=O)O)C(=O)O)C(=O)O)C(=O)O			5.96	
O=C(N[C@@H](C[C@@H](Cc1ccccc1)C(=O)O)C(=O)O)N[C@@H](C[C@@H](Cc1ccccc1)C(=O)O)C(=O)O			6.41	
O=C(O)CCCC(CP(=O)(O)O)C(=O)O (stereo not drawn)				pIC50 [7]: 6.73
O=C(O)CC[C@H](NC(=O)N[C@@H](CCC(=O)O)C(=O)O)C(=O)O			8.10	

More lines, main results first:

pIC50 [6]	pKi [6]	pKi [7]	SMILES	also measured
8.51	8.85		O=C(O)[C@H](C[C@H](F)C(=O)O)CP(=O)(O)O	
8.09	8.51		O=C(O)[C@H](C[C@@H](F)C(=O)O)CP(=O)(O)O	
7.25	7.66		O=C(O)[C@@H](C[C@H](F)C(=O)O)CP(=O)(O)O	
7.05	7.44		O=C(O)[C@@H](C[C@@H](F)C(=O)O)CP(=O)(O)O	
8.17	8.59		O=C(O)C(F)CC(CP(=O)(O)O)C(=O)O (racemic)	

— ChEMBL document CHEMBL2176967, “Radiofluorinated derivatives of 2-(phosphonomethyl)pentanedioic acid as inhibitors of prostate specific membrane antigen (PSMA) for the imaging of prostate cancer” (J Med Chem, 2012)
